Measurements: patent US20160367961A1, “METHOD AND COMPOSITION FOR PEPTIDE C[…] PROTEASE TREATMENT” (Roche Sequencing Solutions, Inc., priority 2015, published 2016)
Square brackets hold non-standard residues; d marks the D form. Peptide text beside a SMILES is read from it.

Tests used:
[1] = molecular target: streptavidin (Streptomyces avidinii, UniProt P22629); experiment: biochemical
Description: Surface plasmon resonance (SPR) experiments were performed on a BIAcore X100 (GE Healthcare). The running buffer was HBS-EP+. To prepare a streptavidin coated chip, 100 ug/mL streptavidin in Acetate 5.0 immobilization buffer was coupled to flow cell 2 of a CM5 chip using the Amine Coupling Kit (GE Healthcare. The chip was then conditioned by flowing a solution containing 0.2 M NaCl and 10 mM NaOH in water over the prepared chip for 60 seconds. The binding affinities of the cyclic and linear peptides were measured against the prepared streptavidin chip using a multiple cycle experiment with base regeneration between each step. Here, seven prepared concentrations of peptide in HBS-EP+ buffer were flowed over the streptavidin chip for 30 seconds and then allowed to dissociate for 60 seconds. Following each peptide concentration, the streptavidin chip was regenerated by flowing 0.2 M NaCl and 10 mM NaOH in water over the chip for 30 seconds followed by a stabilization period of 120 seconds. Kinetic parameters were determined using BIAcore X100 Evaluation Software Version 2.0.1.

[2] = molecular target: streptavidin-Cy5 (Streptomyces avidinii, UniProt P22629); experiment: Streptavidin-Cy5 binding to cyclic/linear peptide microarray, Cy5 fluorescence scan
streptavidin-Cy5, sequence (P22629 25-183): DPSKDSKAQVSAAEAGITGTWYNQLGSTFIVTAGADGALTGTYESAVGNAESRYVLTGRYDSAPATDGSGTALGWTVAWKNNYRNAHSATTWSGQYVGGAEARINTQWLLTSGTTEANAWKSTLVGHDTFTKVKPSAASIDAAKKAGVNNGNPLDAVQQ
Description: Slides were bound with […] streptavidin-Cy5 in 30 mL binding buffer for 30 minutes at room temperature. Binding buffer contained 1% alkali soluble casein and 0.05% tween-20 in 1×TBS, pH 7.4. After 30 minutes, slides were washed twice in 1×TBS buffer for 1 minute, water for 30 seconds, and spun to dryness.
Cy5 fluorescence intensity of the arrays was measured with MS200 scanner (Roche NimbleGen) at resolution 2 um, wavelength 635 nm, gain 25% and laser intensity 100%. Cy5 signal intensities were extracted using Image Extraction Software (Roche NimbleGen). Data pre-processing, normalization and statistical tests were done in R. Data visualization and analysis were performed with Spotfire 6.5.0 (Tibco, Boston, Mass.) software platform.

[3] = extension of HPQ-specific design JXXHPQXXJU, all J combinations (Example 12), FIG. 15

streptavidin, sequence (P22629 25-183, species assumed): as the sequence (P22629 25-183) above

Molecule	Kd [1] [µM]	also measured
NC(=O)CC[C@H](NC(=O)[C@H](Cc1c[nH]c2ccccc12)NC(=O)[C@H]1CCCN1C(=O)[C@H](CCC(N)=O)NC(=O)[C@@H](N)CC(N)=O)C(=O)O [linear NH2-NQpWQ-COOH, NH2-NQpWQ-COOH] (H-NQ[dP]WQ-OH)	> 2000	
NQpWU (cyclo(NQ[dP]WE); also: position 5: U in name, array-bound via glutamate side chain) [cylic NQpWU, U = glutamate attached to the surface through its side chain, p = D-proline]		cyclic fluorescent intensity ([2]; peptide library of the format XXXXU (Example 9), cyclic subarray, FIG. 10): highest cyclic fluorescent intensity
QNDHPQNGGU (cyclo(QNDHPQNGGE); also: position 10: U in name, array-bound via glutamate side chain) [cyclic QNDHPQNGGU, U = glutamate attached to the surface through its side chain]		log fold change (logFC) between cyclic and linear fluorescent intensity ([2]; extension of HPQ-specific design JXXHPQXXJU (Example 12), FIG. 15, positive logFC = preference for cyclic peptide): high logFC; cyclic fluorescent intensity [2, 3]: high cyclic intensitiy
H-LYDHPQNGGQ-OH [linear NH2-LYDHPQNGGQ-COOH, NH2-LYDHPQNGGQ-COOH]	100	
LYDHPQNGGU (cyclo(LYDHPQNGGE); also: position 10: U in name, array-bound via glutamate side chain) [cylic LYDHPQNGGU, U = glutamate attached to the surface through its side chain]		cyclic fluorescent intensity [2, 3]: highest cyclic intensity
CC(C)C[C@@H]1NC(=O)[C@H](CCC(N)=O)NC(=O)CNC(=O)CNC(=O)[C@H](CC(N)=O)NC(=O)[C@H](CCC(N)=O)NC(=O)[C@@H]2CCCN2C(=O)[C@H](Cc2c[nH]cn2)NC(=O)[C@H](CC(=O)O)NC(=O)[C@H](Cc2ccc(O)cc2)NC1=O [cyclic LYDHPQNGGQ, LYDHPQNGGQ] (cyclo(DHPQNGGQLY))	9.4	
NC(=O)CC[C@@H]1NC(=O)[C@H](Cc2c[nH]c3ccccc23)NC(=O)[C@H]2CCCN2C(=O)[C@H](CCC(N)=O)NC(=O)[C@H](CC(N)=O)NC1=O [cyclic NQpWQ, NQpWQ] (cyclo(NQ[dP]WQ))	61.3	
H-QNDHPQNGGQ-OH [linear NH2-QNDHPQNGGQ-COOH, NH2-QNDHPQNGGQ-COOH]	320	
NC(=O)CC[C@@H]1NC(=O)CNC(=O)CNC(=O)[C@H](CC(N)=O)NC(=O)[C@H](CCC(N)=O)NC(=O)[C@@H]2CCCN2C(=O)[C@H](Cc2c[nH]cn2)NC(=O)[C@H](CC(=O)O)NC(=O)[C@H](CC(N)=O)NC(=O)[C@H](CCC(N)=O)NC1=O [cyclic QNDHPQNGGQ, QNDHPQNGGQ] (cyclo(DHPQNGGQQN))	10.8	
